Measured values from US11712434B2, “Compound having anti-cancer effect, and preparation method therefor and use thereof” (3D MEDICINES (BEIJING) CO., LTD., priority 2016, dated 2023).
One block for each molecule: values may come before it.

Columns and labels:
Test in all cases: Cell proliferation assay (Alamar Blue)
Assay type in all cases: cell-based
22RV1 = 22RV1 tumor cell line, 6 days culture
Procedure: (§1) 1. Instruments and Materials • Thermo 311 CO2 incubator; Haier biosafety cabinet; Molecular Devices microplate reader; Xiangyi brand L530 desktop low speed centrifuge; Olympus IX51 inverted fluorescence microscope, DMEM, RPMI 1640, MEM, DMEM/F12 1:1 medium, Fetal bovine serum, 0.25% trypsin solution, phosphate buffer (Thermo Fisher Shanghai Co., Ltd.); sigma dimethyl sulfoxide (DMSO), resazurin; 54 commercial tumor cell lines (including 26 liver cancer cell lines). Experimental drugs: compounds 1-12 and active drug Linifanib; chemotherapeutic drug Doxorubicin (HY-15142; Shanghai Qianyuan Biomedical Technology Co., Ltd.).
(§2) 2. Experimental Methods • 2.1 Cultivation of Different Cell Lines • 54 cell lines were cultured in a culture medium containing fetal bovine serum and placed in a 5% CO2 incubator at 37° C. for incubation. The cells were all grown in an adherent state, and the growth was observed under an inverted microscope, and subculture was performed when the cell confluence rate reached 80%-90%. The proportion and quantity of passage were determined by experimental needs. The ratio of subculture of this cell line was generally 1:2^˜1:3. • 2.2 Inhibition Effect on the Proliferation of Different Tumor Cell Lines • Cell test: 54 cell lines in logarithmic growth phase were inoculated in 96-well culture plates at 500^˜1×10^4/well (the optimal seeding density of each cell line was determined in pre-experiment), After incubating at 37° C. for 4 h in a 5% CO2 humidification incubator, added 10 μL of compounds 1-12 or Linifanib to each well, and tested 9 drug concentration gradients for each compound (diluted from the highest concentration of the test by 3.16 times). The solubility of each compound was different at a starting concentration of 100 or 30 μM, respectively. The QC reference compound Doxorubicin was added simultaneously to each cell line test, and the final drug concentrations were 10, 3.16, 1, 0.31, 0.1, 0.03, 0.01, 0.003, and 0.001 μM, respectively. In addition, a positive control group (100% inhibition) and a negative control group (0% inhibition) were set at the same time. The drug group was repeated for 2 wells per concentration, and the positive control group and the negative control group were repeated for 6 wells. After the culture was continued for 6 days in the incubator, AlamarBlue test operation was followed; • AlamarBlue test procedure: Incubated with 10 μL of AlamarBlue reagent per well for 1-4 h, shook for 1-2 min, MD microplate reader EX: 560 nm, EM: 590 nm wavelength to measure fluorescence, recorded the results, calculated the cell inhibition rate of the compound of the invention. Cell inhibition rate (%)=(A0% inhibition−A administration)/(A0% inhibition−A100% inhibition)×100%, and then using the method of nonlinear regression using GraphPad Prism 5.0 or MATILAB software (usually using four parameters) to graph and obtain a drug dose response curve to obtain an IC50 value of the compound of the present invention acting on a cancer cell line.

Alexander cells = Alexander cells liver cancer cell line, 6 days culture
Procedure: as §1, §2

HEPG2 = HEPG2 liver cancer cell line, 6 days culture
Procedure: as §1, §2

HLF = HLF liver cancer cell line, 6 days culture
Procedure: as §1, §2

HT55 = HT55 tumor cell line, 6 days culture
Procedure: as §1, §2

HUH1 = HUH1 liver cancer cell line, 6 days culture
Procedure: as §1, §2

HUH6 = HUH6 liver cancer cell line, 6 days culture
Procedure: as §1, §2

HUH7 = HUH7 liver cancer cell line, 6 days culture
Procedure: as §1, §2

JHH1 = JHH1 liver cancer cell line, 6 days culture
Procedure: as §1, §2

JHH2 = JHH2 liver cancer cell line, 6 days culture
Procedure: as §1, §2

JHH6 = JHH6 liver cancer cell line, 6 days culture
Procedure: as §1, §2

JHH7 = JHH7 liver cancer cell line, 6 days culture
Procedure: as §1, §2

K562 = K562 tumor cell line, 6 days culture
Procedure: as §1, §2

KASUMI-1 = KASUMI-1 (leukemia cells), 6 days culture
Procedure: as §1, §2

LC-2-ad = LC-2-ad tumor cell line, 6 days culture
Procedure: as §1, §2

LNCAP-clone-FGC = LNCAP-clone-FGC tumor cell line, 6 days culture
Procedure: as §1, §2

MFM-223 = MFM-223 tumor cell line, 6 days culture
Procedure: as §1, §2

MG63 = MG63 tumor cell line, 6 days culture
Procedure: as §1, §2

NCI-H1703 = NCI-H1703 (lung cancer cells), 6 days culture
Procedure: as §1, §2

NCI-H2170 = NCI-H2170 tumor cell line, 6 days culture
Procedure: as §1, §2

NCI-H526 = NCI-H526 tumor cell line, 6 days culture
Procedure: as §1, §2

NCI-H716 = NCI-H716 tumor cell line, 6 days culture
Procedure: as §1, §2

SK-HEP-1 = SK-HEP-1 liver cancer cell line, 6 days culture
Procedure: as §1, §2

SNU387 = SNU387 liver cancer cell line, 6 days culture
Procedure: as §1, §2

SNU761 = SNU761 liver cancer cell line, 6 days culture
Procedure: as §1, §2

SNU886 = SNU886 liver cancer cell line, 6 days culture
Procedure: as §1, §2

SW620 = SW620 tumor cell line, 6 days culture
Procedure: as §1, §2

T.T = T.T tumor cell line, 6 days culture
Procedure: as §1, §2

IC50 (22RV1): > 100 µM
IC50 (HEPG2): 30.1 µM
IC50 (HUH1): > 100 µM
IC50 (HUH6): > 100 µM
IC50 (HUH7): > 100 µM
IC50 (K562): > 100 µM
IC50 (LNCAP-clone-FGC): > 100 µM
IC50 (NCI-H1703): 0.83 µM
IC50 (NCI-H2170): > 100 µM
IC50 (NCI-H526): > 100 µM
IC50 (NCI-H716): 67.4 µM
IC50 (SK-HEP-1): > 100 µM
IC50 (SNU387): > 100 µM
IC50 (SNU761): > 100 µM
IC50 (SNU886): > 100 µM
IC50 (SW620): > 100 µM
Structure (SMILES): Cc1ccc(F)c(NC(=O)Nc2ccc(-c3cccc4[nH]nc(NC(=O)CCCCCNC(=O)C[C@H](N)C(=O)O)c34)cc2)c1 [Compound 11]
IC50 (Alexander cells): > 100 µM
IC50 (HLF): 95.7 µM
IC50 (HT55): > 100 µM
IC50 (JHH1): > 100 µM
IC50 (JHH2): > 100 µM
IC50 (JHH6): > 100 µM
IC50 (JHH7): > 100 µM
IC50 (KASUMI-1): 1.09 µM
IC50 (LC-2-ad): > 100 µM
IC50 (MFM-223): > 100 µM
IC50 (MG63): > 100 µM
IC50 (T.T): > 100 µM

IC50 (22RV1; Homo sapiens, 144 h): 8.16 µM
IC50 (HEPG2; Homo sapiens, 144 h): 1.35 µM
IC50 (HUH1; Homo sapiens, HuH-1, 144 h): 4.67 µM
IC50 (HUH6; Homo sapiens, HuH-6, 144 h): 52.9 µM
IC50 (HUH7; Homo sapiens, Huh-7, 144 h): 2.89 µM
IC50 (K562; Homo sapiens, 144 h): 17.2 µM
IC50 (LNCAP-clone-FGC; Homo sapiens, 144 h): 15.6 µM
IC50 (NCI-H1703; Homo sapiens, 144 h): 0.03 µM
IC50 (NCI-H2170; Homo sapiens, 144 h): 5.32 µM
IC50 (NCI-H526; Homo sapiens, 144 h): 7.45 µM
IC50 (NCI-H716; Homo sapiens, 144 h): 5.49 µM
IC50 (SK-HEP-1; Homo sapiens, SK-HEP1, 144 h): 16.6 µM
IC50 (SNU387; Homo sapiens, SNU-387, 144 h): 22.3 µM
IC50 (SNU761; 144 h): 12.6 µM
IC50 (SNU886; SNU-886, 144 h): 7.24 µM
IC50 (SW620; Homo sapiens, SW-620, 144 h): 3.96 µM
Structure (SMILES): Cc1ccc(F)c(NC(=O)Nc2ccc(-c3cccc4[nH]nc(NC(=O)C[C@H](N)C(=O)N[C@@H](CCC(=O)O)C(=O)O)c34)cc2)c1 [Compound 1]
IC50 (Alexander cells; 144 h): 4.01 µM
IC50 (HLF; 144 h): 5.24 µM
IC50 (HT55; Homo sapiens, 144 h): 24.7 µM
IC50 (JHH1; 144 h): 21.4 µM
IC50 (JHH2; JHH-2, 144 h): 43.6 µM
IC50 (JHH6; 144 h): 6.57 µM
IC50 (JHH7; 144 h): 1.54 µM
IC50 (KASUMI-1; Homo sapiens, 144 h): 0.02 µM
IC50 (LC-2-ad; Homo sapiens, 144 h): 3.52 µM
IC50 (MFM-223; Homo sapiens, 144 h): 3.59 µM
IC50 (MG63; Homo sapiens, MG-63, 144 h): 2.34 µM
IC50 (T.T; Homo sapiens, TT, 144 h): 9.24 µM

IC50 (22RV1; Homo sapiens, 144 h): > 100 µM
IC50 (HEPG2; Homo sapiens, 144 h): 72.2 µM
IC50 (HUH1; Homo sapiens, HuH-1, 144 h): > 100 µM
IC50 (HUH6; Homo sapiens, HuH-6, 144 h): > 100 µM
IC50 (HUH7; Homo sapiens, Huh-7, 144 h): > 100 µM
IC50 (K562; Homo sapiens, 144 h): > 100 µM
IC50 (LNCAP-clone-FGC; Homo sapiens, 144 h): > 100 µM
IC50 (NCI-H1703; Homo sapiens, 144 h): 2.81 µM
IC50 (NCI-H2170; Homo sapiens, 144 h): > 100 µM
IC50 (NCI-H526; Homo sapiens, 144 h): > 100 µM
IC50 (NCI-H716; Homo sapiens, 144 h): > 100 µM
IC50 (SK-HEP-1; Homo sapiens, SK-HEP1, 144 h): > 100 µM
IC50 (SNU387; Homo sapiens, SNU-387, 144 h): > 100 µM
IC50 (SNU761; 144 h): > 100 µM
IC50 (SNU886; SNU-886, 144 h): > 100 µM
IC50 (SW620; Homo sapiens, SW-620, 144 h): > 100 µM
Structure (SMILES): Cc1ccc(F)c(NC(=O)Nc2ccc(-c3cccc4[nH]nc(NC(=O)CCCCCNC(=O)C[C@H](N)C(=O)N[C@@H](CCC(=O)N[C@@H](CCC(=O)N[C@@H](CCC(=O)N[C@@H](CCC(=O)O)C(=O)O)C(=O)O)C(=O)O)C(=O)O)c34)cc2)c1 [Compound 5]
IC50 (Alexander cells; 144 h): > 100 µM
IC50 (HLF; 144 h): > 100 µM
IC50 (HT55; Homo sapiens, 144 h): > 100 µM
IC50 (JHH1; 144 h): > 100 µM
IC50 (JHH2; JHH-2, 144 h): > 100 µM
IC50 (JHH6; 144 h): > 100 µM
IC50 (JHH7; 144 h): > 100 µM
IC50 (KASUMI-1; Homo sapiens, 144 h): 4.26 µM
IC50 (LC-2-ad; Homo sapiens, 144 h): > 100 µM
IC50 (MFM-223; Homo sapiens, 144 h): > 100 µM
IC50 (MG63; Homo sapiens, MG-63, 144 h): > 100 µM
IC50 (T.T; Homo sapiens, TT, 144 h): > 100 µM
